Experimental findings from patent publication US7160508B2, “Personal care products having elastomeric portions” (The Gillette Company, priority 2001, dated 2007) are described below.

≈ marks a conversion by molar mass, not a printed value.

The assay is described as follows: Minimum inhibitory concentration (agar plate dilution, molds). It is filed as cell-based. The settings on record: 168 h; lowest concentration in sterile water and agar with no growth visible to the naked eye after 7 days at 27±2° C. An excerpt:
Preferred antimicrobial agents will inhibit mold growth at relatively low concentrations of antimicrobial agent, i.e., preferred antimicrobial agents will have a low “minimum inhibitory concentration” (MIC), measured as parts per million (ppm) concentration in sterile water and agar using the test procedure discussed below. If the MIC is high, a high concentration of antimicrobial agent will generally be necessary in order to obtain sufficient antifungal activity, resulting in increased cost and a potential adverse affect on the properties of the elastomeric material. For example, high concentrations of antifungal agent may tend to increase the hardness of the thermoplastic elastomer. Preferred antimicrobial agents have an MIC of less than about 100 ppm.
Minimum inhibitory concentration is measured by diluting the antimicrobial agent in sterile water to obtain a plurality of solutions having a range of concentrations. 1 ml of each of the solutions is added to 9 ml portions of molten agar to give a final volume of 10 ml, and immediately poured to form plates. […] The plates are incubated at 27±2° C. and analyzed for growth at 3, 5 and 7 days. […]

For orientation: MIC means the lowest concentration that inhibits growth of the organism. For `CCCCCCCCn1sc(Cl)c(Cl)c1=O` [4,5-dichloro-2-n-octyl-4-isothiazolin-3-one], the MIC is ~50 µg/mL (≈ 177 µM).
